The target of test [1] is T1, human peptide transporter-1 (PEPT1) (Homo sapiens, UniProt P46059).
T1 sequence (P46059 1-708): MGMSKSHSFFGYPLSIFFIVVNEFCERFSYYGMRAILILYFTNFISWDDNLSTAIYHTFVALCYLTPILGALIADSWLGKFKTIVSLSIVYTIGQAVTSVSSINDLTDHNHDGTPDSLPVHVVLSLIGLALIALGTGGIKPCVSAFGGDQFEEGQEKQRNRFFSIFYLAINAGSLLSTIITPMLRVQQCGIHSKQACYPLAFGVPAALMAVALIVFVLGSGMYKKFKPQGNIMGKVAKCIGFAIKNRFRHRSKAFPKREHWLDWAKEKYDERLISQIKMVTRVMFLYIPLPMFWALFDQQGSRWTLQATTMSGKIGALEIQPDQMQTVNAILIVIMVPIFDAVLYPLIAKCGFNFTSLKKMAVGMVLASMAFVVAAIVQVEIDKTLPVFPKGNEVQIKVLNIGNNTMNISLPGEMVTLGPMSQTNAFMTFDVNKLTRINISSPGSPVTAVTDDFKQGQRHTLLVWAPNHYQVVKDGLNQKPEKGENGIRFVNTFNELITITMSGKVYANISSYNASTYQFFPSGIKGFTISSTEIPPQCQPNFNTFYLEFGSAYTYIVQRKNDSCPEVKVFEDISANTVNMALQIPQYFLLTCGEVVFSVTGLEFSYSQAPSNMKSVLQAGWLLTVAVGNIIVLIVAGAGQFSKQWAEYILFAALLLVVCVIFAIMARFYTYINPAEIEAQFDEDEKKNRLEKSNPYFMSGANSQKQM
The experiment in a line: inhibition of radiolabeled Gly-Sar uptake in transfected CHO cells. Format: cell-based.

The next test has as its target T2, PEPT2 (Homo sapiens, UniProt Q16348).
T2 sequence (Q16348 1-729): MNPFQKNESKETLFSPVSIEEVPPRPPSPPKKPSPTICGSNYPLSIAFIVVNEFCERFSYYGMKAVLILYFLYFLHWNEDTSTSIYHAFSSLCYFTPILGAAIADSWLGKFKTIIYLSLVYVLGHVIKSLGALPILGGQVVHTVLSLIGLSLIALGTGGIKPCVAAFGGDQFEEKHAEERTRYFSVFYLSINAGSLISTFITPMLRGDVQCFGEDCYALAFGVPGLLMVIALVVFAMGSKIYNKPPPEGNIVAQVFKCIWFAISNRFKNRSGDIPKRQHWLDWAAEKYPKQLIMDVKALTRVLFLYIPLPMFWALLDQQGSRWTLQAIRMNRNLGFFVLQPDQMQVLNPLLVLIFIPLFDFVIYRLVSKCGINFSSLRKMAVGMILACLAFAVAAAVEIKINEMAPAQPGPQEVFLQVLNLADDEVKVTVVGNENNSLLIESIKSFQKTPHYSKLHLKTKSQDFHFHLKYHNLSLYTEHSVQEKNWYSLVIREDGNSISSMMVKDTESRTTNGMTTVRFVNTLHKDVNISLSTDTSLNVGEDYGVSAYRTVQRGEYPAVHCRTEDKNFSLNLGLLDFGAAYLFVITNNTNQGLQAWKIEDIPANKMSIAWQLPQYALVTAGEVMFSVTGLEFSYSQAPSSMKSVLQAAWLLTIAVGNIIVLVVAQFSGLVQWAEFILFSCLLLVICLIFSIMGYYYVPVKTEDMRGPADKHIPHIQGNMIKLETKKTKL
The test is described as above. Format: cell-based.

With `C[C@@H](Cc1ccccc1)NC(=O)[C@@H](N)CCCCN` [lisdexamfetamine dimesylate], the figures for the IC50 (in test [1]; against PEPT2) were around 4000 µM and 246 µM, respectively.

In general, IC50 refers to the concentration at which inhibition is half-maximal. Read a high IC50 as a need for much substance.

(Values after PMC2898170 (Neuropsychiatric Disease and Treatment, 2010).)
